Test results reported in PMC10321319 (Nature, 2022).
Like-named read-outs stand apart in the source and are kept apart here.

Assays:
[1] = system: A. baumannii 0287 (mcr-1 +); assay: MIC, microbial susceptibility assay; type: cell-based, Acinetobacter baumannii; conditions: XDR A. baumannii 0287, mcr-1 +
S. aureus SH1000 = assay: MIC, microbial susceptibility assay; type: cell-based; conditions: n=2
[2] = system: E. cloacae ATCC13047 (ΔphoP/Q); conditions: E. cloacae ATCC13047 (ΔphoP/Q); n=2
P. aeruginosa PA01 = assay: MIC, microbial susceptibility assay; type: cell-based, Pseudomonas aeruginosa; conditions: n=2
A. baumannii 0295 = assay: MIC, microbial susceptibility assay; type: cell-based, Acinetobacter baumannii; conditions: XDR A. baumannii 0295, mcr-1 −
A. baumannii 0287 = assay: MIC, microbial susceptibility assay; type: cell-based, Acinetobacter baumannii; conditions: XDR A. baumannii 0287, mcr-1 −
[3] = system: pairs of colistin sensitive and resistant strains of K. pneumoniae and A. baumannii (mcr-1 plasmid); type: cell-based
A. baumannii 0301 = conditions: lipid analog table
A. baumannii ATCC17978 [4] = assay: CHIR-090 inhibition assay, growth curves; type: cell-based, Acinetobacter baumannii
A. baumannii 0296 = assay: MIC, microbial susceptibility assay; type: cell-based, Acinetobacter baumannii; conditions: XDR A. baumannii 0296, mcr-1 −
[5] = system: A. baumannii ATCC17978 (pMQ124xlab1-mcr-1); assay: MIC, microbial susceptibility assay; type: cell-based, Acinetobacter baumannii; conditions: n=2
A. baumannii ATCC17978 [6] = assay: MIC, microbial susceptibility assay; type: cell-based, Acinetobacter baumannii; conditions: n=2
[7] = system: A. baumannii 0295 (mcr-1 +); assay: MIC, microbial susceptibility assay; type: cell-based, Acinetobacter baumannii; conditions: XDR A. baumannii 0295, mcr-1 +
[8] = system: A. baumannii SM1536 (pMQ124xlab1-mcr-1); assay: MIC, microbial susceptibility assay; type: cell-based, Acinetobacter baumannii
A. baumannii 0282 = assay: MIC, microbial susceptibility assay; type: cell-based, Acinetobacter baumannii; conditions: XDR A. baumannii 0282, mcr-1 −
K. pneumoniae ATCC13883 = conditions: n=2
E. cloacae 0150 = assay: MIC, microbial susceptibility assay; type: cell-based, Enterobacter cloacae; conditions: n=2
A. baumannii-0301-mcr-1 = assay: Neutropenic thigh infection model; type: in vivo, Acinetobacter baumannii; conditions: neutropenic mice, 20 mg/kg subcutaneous, 24 h
[9] = system: A. baumannii 0301 (mcr-1); assay: MIC, microbial susceptibility assay; type: cell-based, Acinetobacter baumannii
M. osloensis 10973 = conditions: eptA intrinsic resistance
K. pneumoniae 10031 = conditions: n=2
P. vulgaris 49132 = conditions: Proteus vulgaris, intrinsically colistin resistant (L-Ara4N)
[10] = system: K. pneumoniae ATCC13883 (pMQ124-mcr-1)
[11] = system: S. typhimurium 0635 (mcr-1); assay: MIC, microbial susceptibility assay; type: cell-based; conditions: S. typhimurium 0635, mcr-1 clinical isolate; n=2
N. meningitidis 13090 = conditions: eptA intrinsic resistance
E. faecium Com15 = assay: MIC, microbial susceptibility assay; type: cell-based; conditions: n=2
[12] = Pharmacokinetics assessment, plasma; type: in vivo; conditions: mice, single subcutaneous dose 10 mg/kg
[13] = system: E. cloacae ATCC13047 (ΔphoP/Q+phoP/Q)
[14] = system: A. baumannii-SM1536-mcr-1; assay: Neutropenic thigh infection model; type: in vivo, Acinetobacter baumannii; conditions: neutropenic mice, 20 mg/kg subcutaneous, 24 h
[15] = system: K. pneumoniae 0497 (mcr-1); conditions: K. pneumoniae 0497, mcr-1 clinical isolate; n=2
A. baumannii 0286 = assay: MIC, microbial susceptibility assay; type: cell-based, Acinetobacter baumannii; conditions: XDR A. baumannii 0286, mcr-1 −
HT29 cells = assay: MTT cytotoxicity assay; type: cell-based, human; conditions: 48 h incubation

Substance: colistin
- MIC [1]: 64 µg/mL
- MIC (S. aureus SH1000): >128 µg/mL
- MIC [2]: 1 µg/mL
- MIC (P. aeruginosa PA01): 1 µg/mL
- MIC (A. baumannii 0295): 0.25 µg/mL
- MIC (A. baumannii 0287): 0.5 µg/mL
- MIC (N. gonorrhoeae 49226): >128 µg/mL
- increase in MIC upon mcr-1 expression [3]: ≥ 32 fold
- MIC (A. baumannii 0301): 0.25 µg/mL
- A. baumannii growth with antibiotic plus CHIR-090 (A. baumannii ATCC17978 [4]; antibiotic at 10x MIC with LpxC inhibitor CHIR-090, 48 h): rescued A. baumannii growth
- A. baumannii growth with antibiotic alone (A. baumannii ATCC17978 [4]; concentrations above MIC (10x MIC), 48 h): completely abrogated A. baumannii growth
- MIC (A. baumannii 0296): 0.25 µg/mL
- MIC [5]: 32 µg/mL
- MIC (A. baumannii ATCC17978 [6]; A. baumannii 17978, ESKAPE panel): 1 µg/mL
- MIC (A. baumannii ATCC17978 [6]; A. baumannii ATCC17978, mcr-1 engineered pairs): 1 µg/mL
- MIC [7]: >128 µg/mL
- MIC ([8]; A. baumannii SM1536 (pMQ124xlab1-mcr-1), n=2): 128 µg/mL
- Fold increase in MIC ([8]; A. baumannii SM1536 upon introduction of mcr-1): 256
- MIC (A. baumannii 0282): 0.5 µg/mL
- MIC (K. pneumoniae ATCC13883): 1 µg/mL
- MIC (E. cloacae 0150): 1 µg/mL
- bacterial burden in thigh relative to initial infection (A. baumannii-0301-mcr-1): did not reduce the bacterial burden below the level of the initial infection
- MIC (A. baumannii SM1536; lipid analog table): 0.5 µg/mL
- MIC (A. baumannii SM1536; n=2): 0.5 µg/mL
- MIC ([9]; A. baumannii 0301 (mcr-1), lipid analog table): >128 µg/mL
- Fold increase in MIC ([9]; A. baumannii 0301 upon introduction of mcr-1): >512
- MIC ([9]; A. baumannii-0301 transformed with mcr-1 (PDR strain)): > 64 µg/mL
- MIC (M. osloensis 10973): 8 µg/mL
- MIC (K. pneumoniae 10031): 0.5 µg/mL
- MIC (P. vulgaris 49132): > 128 µg/mL
- Fold increase in MIC ([10]; K. pneumoniae 13883 upon introduction of mcr-1): 64
- MIC ([10]; K. pneumoniae ATCC13883 (pMQ124-mcr-1), n=2): 64 µg/mL
- MIC [11]: 16 µg/mL
- MIC (N. meningitidis 13090): 128 µg/mL
- MIC (E. faecium Com15): >128 µg/mL
- plasma drug exposure (pharmacokinetic profile) [12]: parity in plasma drug exposure
- MIC ([13]; E. cloacae ATCC13047 (ΔphoP/Q+phoP/Q), n=2): 32 µg/mL
- Fold increase in MIC ([13]; E. cloacae ATCC13047 upon introduction of phoP/Q): 32
- susceptibility of strain ([13]; E. cloacae phoP/Q deletion rescued with phoP/Q plasmid): resistant
- bacterial burden in thigh relative to initial infection [14]: did not reduce the bacterial burden below the level of the initial infection
- MIC [15]: 32 µg/mL
- MIC (A. baumannii 0286): 1 µg/mL
- cytotoxicity to human cells, IC50 (HT29 cells): > 512 µg/mL
